One series has as its system cTnI. Put plainly: Model cTnI immunoassay with chelate-labelled detection antibodies. Particulars: for Abs max: antibody labelled with the chelate. The method, then:
Labeling was performed in 10 mM botate buffer, pH 8.6-9.0 using 30-fold molar excess of chelates. Reactions were normally carried out overnight at +4° C. or at room temperature. Labeled antibodies were purified on Superfex 200 HR 10/30 or Superdex 200 HiLoad 26/60 gel filtration columns using Tris-saline-azide […], 9.0 g/L NaCl, and 0.5 g/L NaN3), pH 7.75 as an elution buffer. The fractions containing the antibody were pooled and the europium concentrations measured against europium calibrator. The purified antibody comjugate and the labeling ratio (i.e. chelates per protein) were quantified by calculating the protein yield or by measureing the absorbance at 280 nm and subtracting the absorption caused by the added chelate.
An earlier published nine dentate label {2,2′,2″,2′″-{[2-(4-isothiocyanato-phenyl)ethylimino]bis(methylene)bis{4-{[4-(α-galactopyranoxy)phenyl]ethynyl}-pyridine-bis(methylenenitrilo)}tetrakis(acetato)}europium(III) (von Loden, P., et al., 2003, Anal. Chem. 75, 3193) was used as a reference label.
Two labels 49 and 54 were tested in a model cTnl assay. The cTnl immunoassays were performed by using biotinylated capture cTnl antibodies together with the labelled cTnl detection antibodies described above and according to the main principles described in published method (von Loden, P., et al., 2003, Anal. Chem. 75, 3193). The combined assay/wash buffer contained 5 mmol HEPES, 2.1 g/L NaCl, 0.1 mmol EDTA, 0.055 g/L Tween 20 and 1 g/L Gernall II, pH 7.75. The capture biotinylated antibodies were pre-incubated in assay wells. The standards followed by the detection label antibody diluted in 20 μl and 10 μl assay buffer, respectively, were applied to the wells. After one hour incubation at 36 C, the wells were washed, dried and measured.

Series [1] in a line: Photo-physical properties of chelates conjugated to taurine. Type of series: physicochemical. Particulars: 50 mM TRIS buffer (pH 7.75). The protocol:
The prepared isothiocyante activated chelates (65 and 79) were conjugated to taurine as described above in Example 68. The products were purified with semi-preparative reversed phase HPLC (RP-18 column). After the product fractions were evaporated the residues were dissolved in 50 mM TRIS buffer.
The measured photo-physical properties excitation wavelengths (λexc), luminescence decay times (τ), molar absorptivities (ε), estimated luminescence yields (εΦ) of the novel chelates (66 and 80) in 50 mM TRIS buffer (pH 7.75) are in the Table 3. The nine dentate label {2,2′,2″,2′″-{[2-(4-isothiocyanato-phenyl)ethylimino]bis(methylene)bis{4-{[4-(α-galactopyranoxy)phenyl]-ethynyl}bis(methylenenitrilo)}tetrakis(acetato)}-europium(III) (von Loden, P., et al., 2003, Anal. Chem. 75, 3193) was used as a reference label.

A short description of series [2]: Luminescence measurements of Eu(III) chelates with the ligands. Type of series: physicochemical. Particulars: Eu(III) complex of the ligand; 10 mM NH3-HCl buffer, pH 8.3. The protocol: FC=Flash chromatography. RT=room temperature. Microwave synthesizer was Initiator system (Biotage). ^1H NMR and ^13C NMR spectra were recorded on a Bruker AVANCE 500 DRX (Bruker, Karlsruhe, Germany) by using SiMe4 as internal standard and chemical shifts δ are in ppm. Mass spectra were recoded on a Voyager DE Pro (Applied Biosystems, Foster City, Calif.) mass spectrometer. HPLC runs were performed by Dionex's Ultimate 3000 system including Dionex's Ultimate 3000 Diode Array Detector. The used column was ThermoHypersil 150×4 mm 5μ Hypersil® ODS. Used eluents were 100 mM TEAA and CH3CN. Runs were performed by using an eluent gradient starting from 75% H2O, 20% 100 mM TEAA and 5% CH3CN and within 30 min to 30% H2O, 20% TEAA and 50% CH3CN. For the HPLC, sample concentration was aprox. 1 mg of chelate in 1 ml water. The sampling volume was 20-25 μl. The instrumentation, measurement and calculation principles for the molar absorptivities (ε), excitation maxima (λexc), luminescence lifetimes (τ), quantum yields (Φ), and triplet stage energies (T) see e.g. Räsänen, M., et al., 2014, J. Luminescence, 146, 211-217.
The luminescence parameters for Eu(III) complexes with ligands 11, 12, 14, 27, 28, and 35 were measured in 10 mM NH3-HCl buffer, pH 8.3. The molar absorptivities (c), excitation maxima (λexc ), luminescence lifetimes (τ), quantum yields (Φ), calculated luminescence yields (ε×Φ) and triplet stage (T) are presented in Table 1.

Series [3] is described as follows: Photo-physical properties of cTnI antibodies labelled with chelate. The format is physicochemical. The protocol: The Tnl labeled antibodies were prepared as described in Example 61.
The measured photo-physical properties gave the excitation wavelengths (λexc)at 354 nm, a luminescence decay times (τ) of 460 μs molar absorptivities (c) of 142 000 cm^−1M^−1 and luminescence yields (εΦ) of 10 500 cm^−1M^− for the labelled cTnls with the chelate 66 in 50 mM TRIS buffer (pH 7.75)
Dry measurements gave the luminescence yield of 16 500 cm^−1M^−1, which represents estimated luminescence yields based on the signal measurements after dry immunoassay done as described in the Example 61.

[4] abbreviates: labelled cTnI antibodies, 50 mM TRIS buffer (pH 7.75).

Take `O=C([O-])CN(CC(=O)[O-])Cc1cc(C#Cc2ccc3c(c2)C(CC(=O)[O-])(CC(=O)[O-])c2ccccc2-3)cc(CN(CCc2ccc(N=C=S)cc2)Cc2cc(C#Cc3ccc4c(c3)C(CC(=O)[O-])(CC(=O)[O-])c3ccccc3-4)cc(CN(CC(=O)[O-])CC(=O)[O-])n2)n1.[Eu+3].[Na+].[Na+].[Na+].[Na+].[Na+]` [Compound 49]: in the series with cTnI (First test), the Abs max was 348 nm. Also, in the series on cTnI (label coupled to protein, broad excitation), the “excitation after coupled in protein” value is recorded as “around 350 nm”.
In the case of `O=C([O-])COc1cc(OCC(=O)[O-])c(C#Cc2cc(CN(CC(=O)[O-])Cc3cc(C#Cc4ccc5c(c4)C(CC(=O)[O-])(CC(=O)[O-])c4cc(NC(=S)NCCS(=O)(=O)[O-])ccc4-5)cc(CN(CC(=O)[O-])Cc4cc(C#Cc5c(OCC(=O)[O-])cc(OCC(=O)[O-])cc5OCC(=O)[O-])cc(C(=O)[O-])n4)n3)nc(C(=O)[O-])c2)c(OCC(=O)[O-])c1.[Eu+3].[Na+].[Na+].[Na+].[Na+].[Na+].[Na+].[Na+].[Na+].[Na+].[Na+]` [Compound 80], in series [1], the “estimated luminescence yield ε x Φ” value is listed as 5 600 cm^−1M^−1, the “excitation wavelength λexc” value came to 354 nm, the “luminescence decay time τ” value was found to be 290 μs and the “molar absorptivity ε” value is 105 000 cm^−1M^−1.
`O=C(O)CN(CC(=O)O)Cc1cc(C#Cc2ccc3c(c2)C(CC(=O)O)(CC(=O)O)c2ccccc2-3)cc(CN(CC(=O)O)CC(=O)O)n1` [Compound 14]: in series [2], the “calculated luminescence yield ε × Φ” value is listed as 4 200 cm^−1M^−1, the “excitation maximum λexc” value worked out at 342 nm, the “luminescence lifetime τ” value was 355 μs and the “molar absorptivity ε” value is listed as 38 200 cm^−1M^−1. In addition, in series [2], the “quantum yield Φ” value was determined as 0.11 and the “triplet stage T” value was 19 200 cm^−1.
For the compound `O=C([O-])COc1cc(NC(=S)NCCS(=O)(=O)[O-])ccc1C#Cc1cc(CN(CC(=O)[O-])Cc2cc(C#Cc3ccc4c(c3)C(CC(=O)[O-])(CC(=O)[O-])c3ccccc3-4)cc(C(=O)[O-])n2)nc(CN(CC(=O)[O-])Cc2cc(C#Cc3ccc4c(c3)C(CC(=O)[O-])(CC(=O)[O-])c3ccccc3-4)cc(C(=O)[O-])n2)c1.[Eu+3].[Na+].[Na+].[Na+].[Na+].[Na+].[Na+].[Na+]` [Compound 66], in series [1], the “estimated luminescence yield ε x Φ” value is on record as 8 700 cm^−1M^−1, the “excitation wavelength λexc” value is listed as 346 nm, the “luminescence decay time τ” value is recorded as 540 μs and the “molar absorptivity ε” value is on record as 100 000 cm^−1M^−1. The “luminescence yield, dry measurements” value in series [3] (estimated from signal measurements after dry immunoassay) is on record as 16 500 cm^−1M^−1. Also, in series [3] (setting [4]), the “excitation wavelength λexc” value is 354 nm, the “luminescence decay time τ” value was found to be 460 μs, the “luminescence yield εΦ” value is listed as 10 500 cm^−1M^− and the molar absorptivity is on record as 142 000 cm^−1M^−1.
Consider `O=C(O)CN(CC(=O)O)Cc1cc(-c2ccc3c(c2)Cc2ccccc2-3)cc(CN(CC(=O)O)CC(=O)O)n1` [Compound 11], for which, in series [2], the “calculated luminescence yield ε × Φ” value is reported as 4 800 cm^−1M^−1, the “excitation maximum λexc” value amounted to 323 nm, the “luminescence lifetime τ” value was 380 μs and the “molar absorptivity ε” value is 104 000 cm^−1M^−1. In addition, in series [2], the “quantum yield Φ” value turned out to be 0.046 and the “triplet stage T” value is reported as 20 000 cm^−1.
Take `O=C(O)CN(CC(=O)O)Cc1cc(C#Cc2ccccc2)cc(CN(CC(=O)O)CC(=O)O)n1` [Ref ligand, 2,2′,2″,2′″-[(4-phenylethynylpyridine-2,6-diyl)bis(methylenenitrilo)]tetrakis-(acetic acid), reference compound]: in series [2], the “calculated luminescence yield ε × Φ” value was 1 800 cm^−1M^−1, the “excitation maximum λexc” value is 293 nm, the “luminescence lifetime τ” value is 385 μs and the “molar absorptivity ε” value was 26 950 cm^−1M^−1. Moreover, in series [2], the “quantum yield Φ” value is 0.067 and the “triplet stage T” value is on record as 21 600 cm^−1.
Turning to `O=C(O)CN(CC(=O)O)Cc1cc(-c2ccc3c(c2)C(CC(=O)O)(CC(=O)O)c2ccccc2-3)cc(CN(CC(=O)O)CC(=O)O)n1` [Compound 12], in series [2], the “calculated luminescence yield ε × Φ” value is 3 500 cm^−1M^−1, the “excitation maximum λexc” value is given as 328 nm, the “luminescence lifetime τ” value was found to be 390 μs and the “molar absorptivity ε” value is listed as 35 000 cm^−1M^−1. In series [2], the “quantum yield Φ” value was found to be 0.10 and the “triplet stage T” value is 20 100 cm^−1.
On to `O=C([O-])CN(CC(=O)[O-])Cc1cc(-c2ccc3c(c2)C(CC(=O)[O-])(CC(=O)[O-])c2ccccc2-3)cc(CN(CCc2ccc(N=C=S)cc2)Cc2cc(-c3ccc4c(c3)C(CC(=O)[O-])(CC(=O)[O-])c3ccccc3-4)cc(CN(CC(=O)[O-])CC(=O)[O-])n2)n1.[Eu+3].[Na+].[Na+].[Na+].[Na+].[Na+]` [Compound 54], for which the Abs max with cTnI (Second test) was 327 nm.
